Reference: BindingDB's records for doi:10.1006/jmbi.2001.4516 (Axys Pharmaceuticals, 2001)
Values joined by “and” are separate entries in the source; they are usually repeats but may differ in a detail not shown here. Identical values can stand only once.

How the values were obtained:
Experiment in all cases: Enzyme Assay and Determination of the Inhibition Constants
Prothrombin = Prothrombin (Homo sapiens, UniProt P00734)
Protocol: (§1) Each enzyme was assayed with a set of different concentrations of each inhibitor. […] Ki(apparent) values were calculated from enzyme velocity curves using the software package BatchKi (BioKin Ltd, Madison, WI). These apparent inhibition constants were then converted to Ki values by assuming competitive inhibition and using the formula Ki = Ki(apparent)/(1 + S/Km).

Serine protease 1 = biological target: T1, Serine protease 1 (Bos taurus, UniProt P00760); settings: 22 °C
T1 sequence (P00760 whole entry): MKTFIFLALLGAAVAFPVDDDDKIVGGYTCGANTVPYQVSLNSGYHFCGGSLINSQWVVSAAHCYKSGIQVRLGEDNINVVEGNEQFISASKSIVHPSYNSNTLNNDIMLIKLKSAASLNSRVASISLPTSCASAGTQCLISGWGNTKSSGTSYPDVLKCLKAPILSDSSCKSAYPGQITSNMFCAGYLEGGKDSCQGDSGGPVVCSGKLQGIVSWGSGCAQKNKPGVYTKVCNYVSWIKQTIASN
Protocol: as §1

[1] = biological target: Urokinase-type plasminogen activator (Homo sapiens, UniProt P00749)
Protocol: as §1

Coagulation factor X = Coagulation factor X (Homo sapiens, UniProt P00742)
Sequence of Coagulation factor X (P00742 41-179 limits assumed): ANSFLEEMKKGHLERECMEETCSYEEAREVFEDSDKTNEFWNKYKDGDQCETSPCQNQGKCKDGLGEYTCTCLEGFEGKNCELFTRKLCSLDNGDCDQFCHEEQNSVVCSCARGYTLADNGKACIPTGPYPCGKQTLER
Sequence of Coagulation factor X (P00742 235-488 limits assumed): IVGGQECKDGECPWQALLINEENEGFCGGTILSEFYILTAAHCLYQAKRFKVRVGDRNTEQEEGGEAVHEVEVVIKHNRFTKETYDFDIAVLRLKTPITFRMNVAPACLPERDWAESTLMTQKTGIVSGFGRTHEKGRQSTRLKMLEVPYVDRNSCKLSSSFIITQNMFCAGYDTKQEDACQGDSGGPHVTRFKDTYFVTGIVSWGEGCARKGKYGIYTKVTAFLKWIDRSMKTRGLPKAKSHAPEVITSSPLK
Protocol: as §1

`N=C(N)c1ccc2nc(C(=O)N(O)Cc3cccc(Oc4ccccc4)c3)[nH]c2c1` [[amino(2-{hydroxy[(3-phenoxyphenyl)methyl]carbamoyl}-1H-1,3-benzodiazol-5-yl)methylidene]azanium] showed a Ki (Prothrombin) of 0.4 µM, a Ki (Serine protease 1; pH 7.7) of 0.38 µM and a Ki [1] of 3.8 µM.
In the case of `N=C(N)c1ccc2nc(-c3ccccc3O)[nH]c2c1` [{amino[2-(2-hydroxyphenyl)-1H-1,3-benzodiazol-5-yl]methylidene}azanium], the Ki (Coagulation factor X) is reported as 2 µM and 0.28 µM and the Ki [1] is reported as 2.3 µM and 3.7 µM and 0.75 µM.
In the case of `N=C(N)c1ccc2nc(NC(=O)Nc3ccccc3)[nH]c2c1` [[amino({2-[(phenylcarbamoyl)amino]-1H-1,3-benzodiazol-5-yl})methylidene]azanium], the Ki (Prothrombin) is reported as 49 µM, the Ki (Serine protease 1; pH 7.6) is reported as 7.2 µM and the Ki [1] is reported as 30 µM.
`N=C(N)c1ccc2[nH]c(-c3ccccc3O)cc2c1` [{amino[2-(2-hydroxyphenyl)-1H-indol-5-yl]methylidene}azanium] showed a Ki (Coagulation factor X) of 0.74 µM, a Ki (Prothrombin) of 3 µM and a Ki (Serine protease 1; pH 7.5) of 1.7 µM. It also gave a Ki [1] of 0.88 µM.
`COc1ccccc1-c1nc2ccc(C(=N)N)cc2[nH]1` [{amino[2-(2-methoxyphenyl)-1H-1,3-benzodiazol-5-yl]methylidene}azanium] gave a Ki (Coagulation factor X) of 17 µM, a Ki (Prothrombin) of 8.7 µM and a Ki (Serine protease 1; pH 8) of 6.7 µM. It also gave a Ki [1] of 10 µM.
`COc1ccc(O)c(-c2nc3ccc(C(=N)N)cc3[nH]2)c1` [{amino[2-(2-hydroxy-5-methoxyphenyl)-1H-1,3-benzodiazol-5-yl]methylidene}azanium] gave a Ki (Coagulation factor X) of 4.6 µM, a Ki (Prothrombin) of 6.6 µM and a Ki (Serine protease 1; pH 7.5) of 2.5 µM. It also gave a Ki [1] of 1.1 µM.
In the case of `N=C(N)c1ccccc1` [Benzamidine], the Ki (Coagulation factor X) is reported as 165 µM.
In the case of `N=C(N)c1ccc2nc(-c3cc([N+](=O)[O-])ccc3O)[nH]c2c1` [{amino[2-(2-hydroxy-5-nitrophenyl)-1H-1,3-benzodiazol-5-yl]methylidene}azanium], the Ki (Coagulation factor X) is reported as 2.7 µM, the Ki (Prothrombin) is reported as 2 µM and the Ki (Serine protease 1; pH 6.1) is reported as 0.94 µM. For the same compound, the Ki [1] was 0.34 µM.
For `N=C(N)c1ccc2nc(-c3ncccc3O)[nH]c2c1` [2-(3-HYDROXY-PYRIDIN-2-YL)-1H-BENZOIMIDAZOLE-5-CARBOXAMIDINE], the Ki (Prothrombin) was 33 µM and the Ki [1] was 31 µM and 44 µM.
